Values belong to the compound of their own block, whether it stands above or below them.
Assays:
[1] = system: T1, GABAA receptors (GABAARs) of lateral habenula neurons; conditions: 10 μM GABA, co-applied; VH -60 mV; pH 7.4; 22-24 °C; voltage-independent; extrapolated beyond tested 10.8-43.2 mM
T1 construct: gene Gabra1

[2] = system: T2, glycine receptors (GlyRs) of lateral habenula neurons; conditions: 30 μM glycine; VH -60 mV; pH 7.4; 22-24 °C; positive modulator
T2 construct: gene Glra1

[3] = system: T2, glycine receptors (GlyRs) of lateral habenula neurons; conditions: VH -60 mV; pH 7.4; 22-24 °C; agonist
[4] = system: T2, glycine receptors (GlyRs) of lateral habenula neurons; experiment: whole-cell patch clamp, inhibition of glycine current; type: cell-based, Rattus norvegicus; conditions: 500 μM glycine, co-applied; VH -60 mV; pH 7.4; 22-24 °C; antagonist

IC50 [1]: 94.1 ± 29.1 mM
Compound: CCO [ethanol]
% of control at 43.2 mM [2]: 148 ± 14%

EC50 [3]: 83.3 µM
Compound: NCC(=O)O [glycine]

Compound: O=C1C[C@@H]2OCC=C3CN4CC[C@]56c7ccccc7N1[C@H]5[C@H]2[C@H]3C[C@H]46 [strychnine]
IC50 [4]: 220 nM

Source: article PMC5218823, “Acute effects of ethanol on GABAA and glycine currents in the lateral habenula neurons of young rats” (Open journal of neuroscience, 2013)
